Each structure is given as a SMILES string.

In general, IC50 refers to the midpoint of a concentration-inhibition curve. As a reminder, the CC50 is the concentration at which the toxic effect on the cells reaches its halfway point. Read a high CC50 as lower toxicity to the cells.

The target of series [1] is T1, human lipoxygenase-5 (hLOX-5) (Homo sapiens, UniProt P09917).
T1 sequence (P09917 1-674): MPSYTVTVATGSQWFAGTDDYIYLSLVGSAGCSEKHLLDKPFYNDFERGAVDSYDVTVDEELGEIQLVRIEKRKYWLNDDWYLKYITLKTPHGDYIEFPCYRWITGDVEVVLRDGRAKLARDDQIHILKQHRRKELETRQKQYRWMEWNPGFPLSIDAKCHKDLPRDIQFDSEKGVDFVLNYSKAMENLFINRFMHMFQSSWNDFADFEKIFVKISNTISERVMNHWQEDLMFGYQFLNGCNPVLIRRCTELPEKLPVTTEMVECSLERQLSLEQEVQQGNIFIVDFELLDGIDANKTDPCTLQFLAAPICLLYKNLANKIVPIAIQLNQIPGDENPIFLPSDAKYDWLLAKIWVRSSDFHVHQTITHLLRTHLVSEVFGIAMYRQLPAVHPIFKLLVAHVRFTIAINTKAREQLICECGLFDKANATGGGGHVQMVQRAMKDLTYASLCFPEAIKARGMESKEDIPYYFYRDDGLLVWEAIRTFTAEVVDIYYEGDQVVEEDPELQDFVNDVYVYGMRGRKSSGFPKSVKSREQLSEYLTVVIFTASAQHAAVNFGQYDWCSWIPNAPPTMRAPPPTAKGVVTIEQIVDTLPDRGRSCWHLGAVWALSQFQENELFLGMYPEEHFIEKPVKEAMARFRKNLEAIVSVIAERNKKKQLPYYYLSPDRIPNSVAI
In words: Inhibition of human lipoxygenase-5. Conditions: mean ± SD of three independent experiments in triplicate; read-out: LOX5 IC50. It is filed as biochemical. The method, then: The inhibition of human lipoxygenase-5 (hLOX-5) was performed as described [Herrera-Arozamena, Clara et al. "Tuning melatonin receptor subtype selectivity in oxadiazolone-based analogues: Discovery of QR2 ligands and NRF2 activators with neurogenic properties." European journal of medicinal chemistry vol. 190 (2020): 112090. doi:10.1016/j.ejmech.2020.112090], Data are the mean ± SD of three independent experiments performed in triplicate.

For the next series, the system named is NRF2. In words: NRF2 induction, luciferase activity in AREc32 cells. It is filed as cell-based. Conditions: concentration that doubles the activation of NRF2, read-out: NRF2 CD. From the text: Screening of NRF2 induction was quantified by luciferase activity in AREc32 cells as described in [Herrera-Arozamena, Clara et al. "Tuning melatonin receptor subtype selectivity in oxadiazolone-based analogues: Discovery of QR2 ligands and NRF2 activators with neurogenic properties." European journal of medicinal chemistry vol. 190 (2020): 112090. doi:10.1016/j.ejmech.2020.112090].
(§1) Based on the results obtained (Table 2), Compound 1 was selected for further in vitro and in vivo studies as it was endowed with the best anti-neuroinflammatory activity. Table 2: Comparative in vitro results. Cell viability/toxicity: effect of the compound per se on cell viability of […] cells measured with the MTT method. Anti-neuroinflammatory effect: % Reduction of nitrites in primary rat glial cultures. PAMPA-BBB: In vitro blood-brain barrier permeation assay, permeation rate Pe (10-6 cm.s-1). NRF2, CD (µM): Concentration of compound that doubles de activation of NRF2. ORAC: Oxygen radical absorbance capacity. LOX-5: lipoxygenase-5.

Series [2] in a line: In vivo hTauP301L model: spatial memory tests (T-maze, Object Location test). The arrangement: species or system mouse. Conditions: 35 days; for OLT discrimination index / T-maze percentage of success: adult mice. The method, then: In vivo hTau301L model was induced by stereotaxic injection of AAV-hTauP301L (AAV-hTau) particles as described in [Luengo, Enrique et al. "Implication of type 4 NADPH oxidase (NOX4) in tauopathy." Redox biology vol. 49 (2022): 102210. doi:10.1016/j.redox.2021.102210 ]. Control animals were injected with AAV-GFP. Evaluation of hyperphosphorylated tau in sarkosyl soluble and insoluble fractions; microgliosis; AT8 and AT180 by immunofluorescence; and cognitive test were performed as described previously [Luengo, Enrique et al. "Implication of type 4 NADPH oxidase (NOX4) in tauopathy." Redox biology vol. 49 (2022): 102210. doi:10.1016/j.redox.2021.102210 ].
Oral administration of Compound 1 at different dosages (20 mg·kg^-1 and 50 mg·kg^-1) was administered embedded in gelatine. The compound was given in a mixture of 10 % gelatine from porcine skin and 10 % sucralose in water, heated in a microwave oven. Before Compound 1 addition, gelatine mixture was left at RT. Afterwards, the compound was added, evenly mixed and plated 1 mL·well^-1 in a P24 plate. Before AAV injection, mice were trained to eat the gelatines by giving them one gelatine (without compound) per day for 4 consecutive days. After AAV injection, mice were treated once a day with control or Compound 1 gelatines for 35 consecutive days. This approach was followed in adult (3-4 months old) and aged (16-18 months old) mice injected with AAV-GFP or AAV-hTauP301L.
Example 2.5. Compound 1 ameliorates hTauP301L induced FTD and cognitive decline in adult (3-4 months old) mice. FTD was generated in adult male and female C57BL/6J mice (3-4 months old) by bihippocampal injection of AAV-hTau particles containing the P301L mutation. Mice were treated orally once a day with a single dose of 20 or 50 mg/kg of Compound 1 formulated in gelatines the day after stereotaxic delivery of AAVs (GFP or TauP301L, to controls and FTD, respectively). After 35 days treatment, hyperphosphorylated tau levels were evaluated by immunofluorescence and by WB in soluble and insoluble in sarkosyl fractions. Also, behavioural tests were conducted to study the cognition status of the mice.
Spatial memory was measured using the T-maze (Figure 9A) and the Object localization tests (OLT; Figure 9B).
Example 2.6. Compound 1 ameliorates hTauP301L induced FTD and cognitive decline in aged (16-18 months old) mouse. To include the aging effect in the FTD model, the previous experiments were replicated in male and female 16-18 months old C57/BL6J mice.

Series [3] in a line: Cell viability/toxicity by the MTT method. Conditions: human, effect of the compound per se on AREc332 cells. It counts as cell-based.
Excerpt: as §1

[4] abbreviates: aged (16-18 months old) mice, 50 mg/kg oral.

As to `COc1ccc2c(c1)CC(c1c[nH]c3ccc(OC)cc13)N2` (stereo not drawn) [Compound 1, 5-Methoxy-3-(5-methoxyindolin-2-yl)-1H-indole], in series [1], the IC50 amounted to 3.08 ± 0.29 µM. The EC (2-fold activation) with NRF2 is 0.56 ± 0.05 µM. In series [2] (20 mg/kg or 50 mg/kg oral), the OLT discrimination index entry is reported as “dose-dependent improvement” and the “T-maze percentage of success” value is reported as “dose-dependent improvement”. In series [2] (50 mg/kg oral), the OLT discrimination index result is reported as “total recovery” and the “T-maze percentage of success” value is given as “total recovery”. Further, in series [2] (setting [4]), the “spatial memory loss, OLT” value was “prevented” and the “spatial memory loss, T-maze” value is reported as “prevented”. The CC50 in series [3] is more than 30 µM.
